Biological target: T1, bile salt export pump (BSEP) (Homo sapiens, UniProt O95342)
T1 construct: gene ABCB11
Experiment: inhibition of taurocholate transport in membrane preparations from HEK293 cells overexpressing human BSEP
Format: biochemical

T1 sequence (O95342 whole entry): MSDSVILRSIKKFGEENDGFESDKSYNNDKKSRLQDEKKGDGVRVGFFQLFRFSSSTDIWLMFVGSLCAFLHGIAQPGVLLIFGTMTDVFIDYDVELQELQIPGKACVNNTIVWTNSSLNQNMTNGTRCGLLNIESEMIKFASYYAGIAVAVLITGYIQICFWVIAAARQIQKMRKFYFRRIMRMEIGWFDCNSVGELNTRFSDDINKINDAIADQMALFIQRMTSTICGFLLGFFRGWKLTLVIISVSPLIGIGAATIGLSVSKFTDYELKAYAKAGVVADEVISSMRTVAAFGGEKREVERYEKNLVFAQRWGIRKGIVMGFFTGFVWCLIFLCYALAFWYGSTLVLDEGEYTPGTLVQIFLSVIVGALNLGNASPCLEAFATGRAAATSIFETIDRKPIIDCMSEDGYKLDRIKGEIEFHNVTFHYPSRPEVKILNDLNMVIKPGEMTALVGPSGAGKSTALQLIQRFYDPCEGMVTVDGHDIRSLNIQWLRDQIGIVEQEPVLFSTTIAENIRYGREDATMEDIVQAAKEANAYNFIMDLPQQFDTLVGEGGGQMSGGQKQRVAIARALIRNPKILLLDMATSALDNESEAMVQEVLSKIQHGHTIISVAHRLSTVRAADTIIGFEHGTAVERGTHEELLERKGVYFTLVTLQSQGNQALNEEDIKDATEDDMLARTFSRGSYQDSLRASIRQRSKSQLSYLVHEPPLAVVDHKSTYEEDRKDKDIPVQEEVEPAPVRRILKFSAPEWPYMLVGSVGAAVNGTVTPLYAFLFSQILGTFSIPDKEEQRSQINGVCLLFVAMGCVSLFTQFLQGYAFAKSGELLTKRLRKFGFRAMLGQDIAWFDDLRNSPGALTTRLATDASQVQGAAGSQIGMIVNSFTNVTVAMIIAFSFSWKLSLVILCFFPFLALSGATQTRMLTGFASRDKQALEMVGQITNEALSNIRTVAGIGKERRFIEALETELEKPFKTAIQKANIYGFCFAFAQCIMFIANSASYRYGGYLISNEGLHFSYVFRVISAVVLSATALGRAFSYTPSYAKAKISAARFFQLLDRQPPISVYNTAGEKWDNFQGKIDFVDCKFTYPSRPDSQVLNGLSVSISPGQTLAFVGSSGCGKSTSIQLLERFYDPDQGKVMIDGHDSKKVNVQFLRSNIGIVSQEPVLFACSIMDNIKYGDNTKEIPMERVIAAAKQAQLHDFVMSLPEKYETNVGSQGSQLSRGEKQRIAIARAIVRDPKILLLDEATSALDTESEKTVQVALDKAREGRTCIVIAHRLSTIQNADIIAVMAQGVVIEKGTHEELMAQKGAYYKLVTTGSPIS

SMILES | IC50 [µM]
CCCC1COC(Cn2cncn2)(c2ccc(Cl)cc2Cl)O1 (centres unmarked) [Pi, propiconazole] | 78.6
CC(C)(C)C(O)(CCc1ccc(Cl)cc1)Cn1cncn1 (centres unmarked) [Te, tebuconazole] | 38

Source: publication PMC9600068, “New Approach Methods for Hazard Identification: A Case Study with Azole Fungicides Affecting Molecular Targets Associated with the Adverse Outcome Pathway for Cholestasis” (Cells, 2022)
